Measurements: patent publication US4412998A, “Certain 4-(1-piperidino)-phenyl-nicotinates” (Merz & Company, priority 1979, dated 1983)

Columns and labels:
[1] = Cholesterol reduction in rats on high-fat diet; type: in vivo, female Wistar rats; settings: Rattus norvegicus, read-out: Chol. Red. in %
Experimental: (§1) Additionally, experiments on female Wistar rats were carried out. For a period of 3 weeks the animals received a special diet with a very high fat content. Starting from the second week, half the rats were treated with a dosage of 100 and 25 mg/kg body weight. After the third week blood samples were taken 18 hours after administration of the last dose. Triglyceride and cholesterol concentrations were compared with that of the untreted animals. Cholesterol and triglycerides were determined with the aid of the Boehringer enzymatic test.

[2] = Triglyceride reduction in rats on high-fat diet; type: in vivo, female Wistar rats; settings: Rattus norvegicus, high fat diet 3 weeks, blood 18 hours after last dose, read-out: Triglyc. Red. in %
Experimental: as §1

ED50 in rat (Table 1) = type: in vivo
in vivo = settings: rat
[3] = cited from earlier work; for reduction of free fatty acids (in words): test animals, low dosage between 0.5 and 30 mg/kg body weight
[4] = 100 mg/kg, high fat diet 3 weeks, blood 18 hours after last dose
[5] = high fat diet 3 weeks, blood 18 hours after last dose

Row | Structure (SMILES) | inhibition in vivo at 100 mg/kg [1, 4] | inhibition in vivo at 100 mg/kg [2] | ED50 (ED50 in rat (Table 1)) | LD50 (in vivo) | selectivity ratio (in vivo) | other results
1 | CC(C)(c1ccccc1)c1ccc(OC(=O)c2cccnc2)cc1 [Example 9, p-cumylphenyl nicotinate] | 24% | 1% | – | – | – | –
2 | O=C(Oc1ccc(C(=O)c2ccc(Cl)cc2)cc1)c1cccnc1 [Example 10, p-chlorobenzoylphenyl nicotinate] | 29% | – | – | – | – | –
3 | CC(C)(C)c1cc(C2CCCCC2)ccc1OC(=O)c1cccnc1 [Example 8, 2-t-butyl-4-cyclohexylphenyl nicotinate] | – | – | 30 mg/kg | 1700 mg/kg | 56 | inhibition in vivo at 25 mg/kg [1, 5]: 9%; inhibition in vivo at 25 mg/kg [2]: 8%
4 | O=C(Oc1cccc2c1CCCC2)c1cccnc1 [Example 7, 5,6,7,8-Tetrahydro-1-naphthyl-nicotinate] | 22% | 18% | – | – | – | –
5 | CC(C)(Oc1ccc(Cl)cc1)C(=O)OCc1cccnc1 [3-pyridyl carbinol ester of clofibric acid] | – | – | – | – | – | influence on lipids (in words) ([3]; background): effective lipid- and cholesterol-lowering component
6 | OCc1cccnc1 [3-pyridyl carbinol] | – | – | – | – | – | reduction of free fatty acids (in words) [3]: great reduction of the free fatty acids
7 | CCOC(=O)C(C)(C)Oc1ccc(Cl)cc1 [clofibrate, ethyl ester of 2-(p-chlorophenoxy)-isobutyric acid, reference compound] | – | 8% | ~300 mg/kg | 1500 mg/kg | – | cases with cholesterol (CH) in the β- and α-lipoproteins further increased ([3]; in vivo): about 20%; fall of the initial values of triglycerides (TG) and pre-β-lipoproteins ([3]; in vivo): up to 50%
8 | O=C(Oc1ccc(C23CC4CC(CC(C4)C2)C3)cc1)c1cccnc1 [Example 2, p-(1-adamantylphenyl)-nicotinate] | 28% | 47% | 68 mg/kg | 3200 mg/kg | 47 | –
9 | O=C(O)c1cccnc1 [Nicotinic acid, nicotinic acid, reference compound] | – | – | ~500 mg/kg | 4000 mg/kg | 8 | inhibition in vivo at 100 mg/kg ([1]; 18 h): 7%; influence on lipids (in words) ([3]; background): act predominantly on elevated cholesterol values and free fatty acids; side effects (in words) ([3]; background): flush, headache, nausea, vomiting; reduction of free fatty acids (in words) [3]: great reduction of the free fatty acids
10 | CC(C)(Oc1ccc(Cl)cc1)C(=O)Oc1ccc(C(=O)CC23CC4CC(CC(C4)C2)C3)cc1 [Example 3, 2-(p-chlorophenoxy)-isobutyric acid-p-(1-adamantylacetyl)-phenyl ester] | 27% | 35% | – | – | – | –
11 | O=C(Oc1ccc(C2CCCCC2)cc1)c1cccnc1 [Example 1, p-cyclohexylphenyl nicotinate] | 45% | 19% | 50 mg/kg | 2200 mg/kg | 44 | –
12 | Cl.O=C(Oc1ccccc1C1CCCCC1)c1cccnc1 [Example 6, o-cyclohexylphenyl nicotinate hydrochloride] | – | – | 22 mg/kg | 2050 mg/kg | 93 | inhibition in vivo at 25 mg/kg [1, 5]: 18%; inhibition in vivo at 25 mg/kg [2]: 16%
